These results are taken from patent US20160016916A1, “Exo Olefin-Containing Nuclear Transport Modulators and Uses Thereof” (KARYOPHARM THERAPEUTICS INC., priority 2013, published 2016).

Molecules are shown by their SMILES.

For one assay, the system named is MM1.S cells. The assay can be described thus: CellTiter 96 AQueous One Solution cell proliferation assay (MTS). To be noted: Homo sapiens, 72 h of treatment, MTS absorbance at 490 nm. The class given is cell-based. An excerpt: The CellTiter 96® AQueous One Solution cell proliferation assay (Promega) was used on MM1.S cells to study the cytotoxic and cytostatic properties of the compounds. The assay is based on the cleavage of the tetrazolium salt, MTS, in the presence of an electron-coupling reagent PES (phenazine ethosulfate). The MTS tetrazolium compound is bioreduced by cells into a colored formazan product that is soluble in tissue culture medium. This conversion is presumably accomplished by NADPH or NADH produced by dehydrogenase enzymes in metabolically active cells. Assays are performed by adding a small amount of the CellTiter 96® AQueous One solution reagent directly to culture wells, incubating for 1-4 hours and then recording the absorbance at 490 nm with a 96-well plate reader.
The cells were seeded at 5×10^3 to 1.5×10^4 cells (depending on cell type) in each well of 96-well plate in 100 μL of fresh culture medium and adherent cells were allowed to attach for overnight. The stock solutions of the compounds were diluted in cell culture medium to obtain eight concentrations of each drug, ranging from 1 nM to 30 μM and DMSO at less than 1% v/v was used as a negative control. After 72 h of treatment, 20 μL of CellTiter 96® AQueous reagent was added into each well of the 96-well assay plates and the plate was incubate at 37° C. for 1-4 hours in a humidified, 5% CO2 atmosphere. Then the absorbance of each well was recorded at 490 nm by using a 96-well plate reader. In most cases, the assay was performed in triplicates and the results were presented as half maximal inhibitory concentration (IC50). Optical density versus compound concentration was plotted and analyzed using non linear regression equations (Excel Fit) and the IC50 for each compound was calculated.

Another assay addresses T1, CRM1 (Homo sapiens, UniProt O14980).
T1 construct: HeLa cells expressing GFP that was N-terminally fused to a nuclear localization and C-terminally fused to the nuclear export signal of PKI; endogenous in cells; host or cells: HeLa cells expressing an NLS-GFP-NES(PKI) reporter
Put plainly: CRM1-mediated nuclear export assay (GFP nuclear localization in HeLa cells). Type of assay: cell-based. To be noted: HeLa cells expressing NLS-GFP-NES(PKI), 3 hours, concentration at which approximately 50% of the cells showed nuclear GFP. As to the method:
HeLa cells expressing GFP that was N-terminally fused to a nuclear localization and C-terminally fused to the nuclear export signal of PKI were treated with different concentrations of test compounds for 3 hours and then scored for nuclear localization of GFP.
HeLa cells were cultured in Dulbecco's modified Eagle's medium (DMEM) supplemented with 10% (vol/vol) heat-inactivated fetal calf serum, 2 mM L-glutamine 0.1% sodium bicarbonate, and 20 μg/ml gentamicin. The cells were plated in 96-well plates at 0.02×10^6 cells/well and incubated overnight. The next day, compound was added to the cells and incubated for another 3 hours. After 3 hours, GFP subcellular localization was monitored using a Leica DMI6000 microscope.

As a reminder, the IC50 is the midpoint of a concentration-inhibition curve. The low end stands for greater potency, the high end for weaker potency. By EC50 is commonly meant the concentration needed to bring the measured effect to its halfway point. Low readings indicate higher potency in that assay, high ones lower potency in that assay.

T1 sequence (O14980 whole entry, the tested form may be a part): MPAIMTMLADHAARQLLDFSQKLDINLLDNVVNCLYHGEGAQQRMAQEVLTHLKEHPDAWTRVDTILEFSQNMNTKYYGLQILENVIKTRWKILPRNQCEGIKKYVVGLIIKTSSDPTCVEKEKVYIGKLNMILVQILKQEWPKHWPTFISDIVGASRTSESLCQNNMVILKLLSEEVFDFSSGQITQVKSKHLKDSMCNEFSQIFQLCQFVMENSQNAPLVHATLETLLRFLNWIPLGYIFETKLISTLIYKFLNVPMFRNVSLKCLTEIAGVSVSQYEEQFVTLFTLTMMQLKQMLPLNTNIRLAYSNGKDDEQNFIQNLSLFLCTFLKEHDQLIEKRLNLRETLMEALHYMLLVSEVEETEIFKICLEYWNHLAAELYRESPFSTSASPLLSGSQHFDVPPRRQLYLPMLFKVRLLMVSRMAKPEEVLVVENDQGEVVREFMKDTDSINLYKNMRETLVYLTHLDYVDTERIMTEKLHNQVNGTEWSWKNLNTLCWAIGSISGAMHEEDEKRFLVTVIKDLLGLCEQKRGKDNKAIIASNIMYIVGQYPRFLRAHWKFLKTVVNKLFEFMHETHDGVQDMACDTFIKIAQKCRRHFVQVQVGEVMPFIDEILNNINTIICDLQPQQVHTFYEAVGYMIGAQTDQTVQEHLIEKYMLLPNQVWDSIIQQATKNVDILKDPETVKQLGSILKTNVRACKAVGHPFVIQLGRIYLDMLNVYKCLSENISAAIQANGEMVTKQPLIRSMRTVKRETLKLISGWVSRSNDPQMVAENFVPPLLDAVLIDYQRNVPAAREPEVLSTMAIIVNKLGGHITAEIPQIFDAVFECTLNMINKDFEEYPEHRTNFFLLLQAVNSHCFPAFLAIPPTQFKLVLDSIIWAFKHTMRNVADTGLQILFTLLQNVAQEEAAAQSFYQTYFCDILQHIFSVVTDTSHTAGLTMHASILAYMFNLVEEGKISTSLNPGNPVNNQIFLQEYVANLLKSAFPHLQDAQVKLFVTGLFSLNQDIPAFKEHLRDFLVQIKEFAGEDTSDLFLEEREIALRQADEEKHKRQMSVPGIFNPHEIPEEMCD

As to `C=C(Cn1cnc(-c2cc(C(F)(F)F)cc(C(F)(F)F)c2)n1)C(=O)NNc1cnccn1` [Compound 7, 2-((3-(3,5-bis(trifluoromethyl)phenyl)-1H-1,2,4-triazol-1-yl)methyl)-N′-(pyrazin-2-yl)acrylohydrazide], the concentration for half-maximal inhibition (IC50) in the assay with MM1.S cells came out at 10 nM.

The molecule `C=C(Cn1cnc(-c2cc(C(F)(F)F)cc(C(F)(F)F)c2)n1)C(=O)N1CC(F)(F)C1` [Compound 5, 2-((3-(3,5-bis(trifluoromethyl)phenyl)-1H-1,2,4-triazol-1-yl)methyl)-1-(3,3-difluoroazetidin-1-yl)prop-2-en-1-one] yielded a concentration for half-maximal inhibition (IC50) in the assay on MM1.S cells of 90 nM. In addition, the EC50 on CRM1 is 1800 nM.

In the case of `C=C(Cn1nnc(-c2cc(C(F)(F)F)cc(C(F)(F)F)c2)n1)C(=O)OC(C)C` [Compound 11, isopropyl 2-((5-(3,5-bis(trifluoromethyl)phenyl)-2H-tetrazol-2-yl)methyl)acrylate], on CRM1, the concentration for a half-maximal effect (EC50) came to 15000 nM.

In turn, `C=C(Cn1cnc(-c2cc(OC)cc(C(F)(F)F)c2)n1)C(=O)OCC` [Compound 4, ethyl 2-((3-(3-methoxy-5-(trifluoromethyl)phenyl)-1H-1,2,4-triazol-1-yl)methyl)acrylate] yielded an EC50 at CRM1 of 3800 nM.

On CRM1, `C=C(Cn1nnc(-c2ccccc2)n1)c1nnco1` [Compound 9, 2-(3-(5-phenyl-2H-tetrazol-2-yl)prop-1-en-2-yl)-1,3,4-oxadiazole] came in with an EC50 of 15000 nM.

In the assay on MM1.S cells, `C=C(Cn1cnc(-c2cc(C(F)(F)F)cc(C(F)(F)F)c2)n1)c1nnco1` [Compound 8, 2-(3-(3-(3,5-bis(trifluoromethyl)phenyl)-1H-1,2,4-triazol-1-yl)prop-1-en-2-yl)-1,3,4-oxadiazole] had an IC50 of 30 nM. Besides, the concentration giving a half-maximal response (EC50) on CRM1 was 230 nM.

Take `C=C(Cn1cnc(-c2cc(OC)cc(C(F)(F)F)c2)n1)C(=O)OC(C)C` [Compound 3, isopropyl 2-((3-(3-methoxy-5-(trifluoromethyl)phenyl)-1H-1,2,4-triazol-1-yl)methyl)acrylate]: in the assay with MM1.S cells, inhibition was half-maximal at 50 nM (IC50). A half-maximal effect at CRM1 (EC50) was put at 1800 nM.

Turning to `C=C(Cn1cnc(-c2cc(C(F)(F)F)cc(C(F)(F)F)c2)n1)C(=O)OC(C)C` [Compound 1, isopropyl 2-((3-(3,5-bis(trifluoromethyl)phenyl)-1H-1,2,4-triazol-1-yl)methyl)acrylate], the IC50 in the assay on MM1.S cells turned out to be 100 nM. Moreover, a half-maximal response at CRM1 (EC50) required 900 nM.

`C=C(Cn1nnc(-c2ccccc2)n1)C(=O)N1CCCCC1` [Compound 10, 2-((5-phenyl-2H-tetrazol-2-yl)methyl)-1-(piperidin-1-yl)prop-2-en-1-one]: the EC50 on CRM1 was over 30000 nM.

`C=C(Cn1cnc(-c2cc(C(F)(F)F)cc(C(F)(F)F)c2)n1)C(=O)NNc1ccccn1` [Compound 6, 2-((3-(3,5-bis(trifluoromethyl)phenyl)-1H-1,2,4-triazol-1-yl)methyl)-N′-(pyridin-2-yl)acrylohydrazide] had a concentration for half-maximal inhibition (IC50) with MM1.S cells of 70 nM. This molecule also yielded a 50% effective concentration (EC50) on CRM1 of 900 nM.
